Test results taken from patent publication US6869961B2, “Store operated calcium influx inhibitors and methods of use” (Cellegy Pharmaceuticals, Inc., priority 2001, dated 2005).
Blank lines part the entries; values can stand above or below the compound they belong to.

What was measured:
IL-2 [1] = test: IL-2 release from Jurkat cells (PMA and ionomycin, ELISA); assay type: cell-based, human; details: for IC50: Homo sapiens, Jurkat, Table III, 'the foregoing assay' of Example 2
Method: Since NFAT plays a critical role in IL-2 and TNFα gene transcription, the effects of the novel compounds on IL-2 and TNFα secretion from stimulated lymphoid cells were also investigated. Jurkat cells, in standard medium, were seeded into 24-well dishes at 1 million cells per well and were treated as follows: […], then stimulated with 20 ng/mL PMA and 1 μg/mL ionomycin for 5 hours. Following centrifugation, the supernatants were analyzed for IL-2 content by ELISA using a standard protocol.

NFAT = test: NFAT-regulated luciferase reporter assay in Jurkat cells; assay type: cell-based, human; details: for inhibition of NFAT activity: NFAT reporter assay, Jurkat cells
Method: The biological activity of column fractions and crystalline material was assessed in the NFAT activation assay using Jurkat cells stably transfected with NFAT-regulated luciferase reporter (see, FIGS. 9-14).
Jurkat cells, in standard medium, were seeded in 24-well dishes at 1 million cells per well and treated as follows. […] The cells were harvested 5 hours later and luciferase activity was measured in a luminometer.

[2] = tested on: rat basophilic leukemia (2H3) cells; test: 5-HT release from rat basophilic leukemia (2H3) cells; assay type: cell-based; details: FIG. 5
[3] = tested on: oxazolone-induced contact hypersensitivity response; details: mouse, FIG. 6
Crohn's disease = test: Maintenance therapy of Crohn's disease in remission; assay type: in vivo, human; details: Crohn's disease subjects in remission
Text: Remission is defined as no need for oral prednisone and presence of a score of 150 or less on the Crohn's Disease Activity Index. This index incorporates eight items: the number of liquid or very soft stools in the seven days preceding the assessment, the severity of abdominal pain, general well-being, the presence or absence of an abdominal mass or extra-intestinal manifestation of the disease, the use of opiates to treat diarrhea, hematocrit, and weight. Scores in this index can range from 0 to approximately 600. Higher scores indicate greater disease activity.
Upon reaching remission, the subject takes lovastatin orally (Mevacor, 20-1000 mg) every day, in addition to one or more of the following: controlled release lovastatin tablet(s) targeting specific disease sites, lovastatin enema(s), or lovastatin rectal suppositories on a regular basis. On average, 50-60% of Crohn's disease subjects in remission relapse in 40 weeks.

IFN-gamma = IFN-gamma production from Jurkat cells; assay type: cell-based, human
NF-κB = NF-κB luciferase reporter in Jurkat T cells; assay type: cell-based, human; details: 20 μg/ml, 5 hr
Method: The next day, cells were preincubated with lovastatin (20 μg/ml) or vehicle control for 15 min, and then stimulated with PMA (20 ng/ml), ionomycin (1 μg/ml), or PMA+ionomycin for 5 hr. The cells were harvested, lysed, and lysates assayed for firefly luciferase and Renilla luciferase activity measured in a luminometer.

TNF-alpha = test: PBMC TNF-alpha release; assay type: cell-based; details: FIG. 4
TNBS-induced colitis = test: Rat TNBS-induced colitis model; assay type: in vivo; details: 50 mg/kg/day intracolonically, two weeks, day 14
Text: Human inflammatory bowel disease (IBD) is a chronic relapsing and remitting disease of unknown etiology that affects individuals of both sexes throughout life. The factors contributing to the two main forms of the disease, Crohn's disease and ulcerative colitis, are complex and probably involve abnormal immune responses and commensal intestinal microflora. A number of experimental models of intestinal inflammation have been developed, including those based on intracolonic instillation of 2,4,6-trinitrobenzene sulfonic acid (TNBS). TNBS-induced colitis shares many of the histopathological and clinical features of Crohn's disease, i.e. it is to some extent immune-mediated, produces long lasting ulcerative damage and thickening of the bowel wall, granulocyte and mononuclear cell infiltration and granuloma formation, and transmural inflammation of the mucosa, (Morris et al., Gastroenterology 96:795-803, 1989). This model has been widely used to evaluate potential treatments for colonic inflammation.
In the present study, the local anti-inflammatory effects of lovastatin were assessed in the rat TNBS-induced colitis model. Colitis was induced in male Wistar rats weighing 175-225 g by intracolonic instillation of the hapten TNBS (60 mg/ml) in 0.5 ml of 50% ethanol. Groups of 8 rats received the lovastatin formulation prepared in Example 11 (50 mg/kg/day), a positive control, budesonide (2.5 mg/kg/day), or vehicle (0.5% sodium carboxymethylcellulose) intracolonically 1 hour after induction of colitis, and at 12 h intervals thereafter for two weeks. The rats received 0.5 ml of test drug or vehicle at each dosing. On day 14 after induction of colitis, the animals were euthanized and the distal colon was removed and pinned out on a wax platform. The presence or absence of diarrhea was noted, as was the presence and severity of adhesions between the colon and other organs. The severity of colonic damage was scored using the criteria described in Appleyard and Wallace, Am. J. Physiol. 269 (Gastrointest.Liver Physiol. 32): G119-G125, 1995. […]

JNK = JNK phosphorylation in Jurkat T cells (Western blot); assay type: cell-based, human; parameters: dose or concentration left out as unconfirmed; details: lovastatin
Text: Cells were harvested, lysates prepared, and proteins Western blotted using antibodies directed against JNK or phospho-JNK (Thr183/Thr185).

IL-8 = IL-8 production from Jurkat cells; assay type: cell-based, human
IL-2 [4] = test: PBMC IL-2 release; assay type: cell-based; details: FIG. 3

Structure (SMILES): CN1C(=O)N(c2cc(Cl)cc(Cl)c2)C(=O)C1(C)Cc1ccc(Br)cc1 (single isomer, unassigned) [BIRT377 less active enantiomer]
inhibition of NFAT activity (NFAT): very weak NFAT inhibitory activity

Structure (SMILES): CN1C(=O)N(c2cc(Cl)cc(Cl)c2)C(=O)[C@@]1(C)Cc1ccc(Br)cc1 [BIRT377]
inhibition of NFAT activity (NFAT): very weak NFAT inhibitory activity

Structure (SMILES): COC(=O)/C=C/C=C/C=C/c1c(-c2ccc(F)cc2)c2ccccc2n1C(C)C [Compound 1079-76-3C]
inhibition of TG+PMA-induced NFAT activity (NFAT; 5 μg/mL, 0.3 μM TG + 20 ng/mL PMA, 5 hours): approximately 85%
expression of NFAT-regulated reporter gene (NFAT; Jurkat cells stimulated with ionomycin + PMA or thapsigargin + PMA): inhibited
IL-2 release by PMA and ionomycin in Jurkat cells (IL-2 [1]; 5.0 μg/mL, 30 min pre-incubation, 5 hours): inhibit

Structure (SMILES): CC[C@H](C)C(=O)O[C@H]1C[C@H](O)C=C2C=C[C@H](C)[C@H](CC[C@@H](O)C[C@@H](O)CC(=O)O)[C@H]21 [Pravastatin, pravastatin]
inhibition of NFAT activity (NFAT): inactive

Structure (SMILES): CC(C)c1c(C(=O)Nc2ccccc2)c(-c2ccccc2)c(-c2ccc(F)cc2)n1CC[C@@H](O)C[C@@H](O)CC(=O)O [atorvastatin]
inhibition of NFAT activity (NFAT): inactive

Structure (SMILES): CC(C)n1c(/C=C/C(O)CC(O)CC(=O)O)c(-c2ccc(F)cc2)c2ccccc21 (stereo not shown) [fluvastatin]
inhibition of NFAT activity (NFAT): inactive

Structure (SMILES): CC[C@H](C)C(=O)O[C@H]1C[C@@H](C)C=C2C=C[C@H](C)[C@H](CC[C@@H]3C[C@@H](O)CC(=O)O3)[C@H]21 [lovastatin]
inhibition of 5-hydroxytryptomine (5-HT) release [2]: inhibition
inhibition of oxazolone-induced contact hypersensitivity response [3]: inhibition
disease activity (Crohn's disease): less severe
remission time between relapse (Crohn's disease; oral 20-1000 mg every day plus local forms): longer
inhibition of NFAT activity (NFAT): able to inhibit
inhibition of IFN-gamma production (IFN-gamma): inhibition
calcium-dependent NF-κB activation (ionomycin synergy with PMA) (NF-κB): strongly inhibits
inhibition of PBMC TNF-alpha release (TNF-alpha): inhibition
colonic MPO activity (TNBS-induced colitis): reduced
colonic damage score (TNBS-induced colitis): significant (p<0.05) reduction
global colitis score (TNBS-induced colitis): significant (p<0.05) reduction
PMA-induced JNK phosphorylation (JNK): little effect
JNK phosphorylation induced by PMA+ionomycin (JNK; 15 min pre-incubation, 30 min stimulation): inhibits
inhibition of IL-8 production (IL-8): inhibition
inhibition of Jurkat IL-2 release (IL-2 [1]; FIG. 2): inhibition
inhibition of PBMC IL-2 release (IL-2 [4]): inhibition

Structure (SMILES): CCC(C)C(=O)OC1CCC=C2C=CC(C)C(CCC(O)CC(O)CC(=O)O)C21 (stereo not shown) [mevastatin open chain form]
inhibition of NFAT activity (NFAT): only the lactone form was active

Structure (SMILES): CC[C@H](C)C(=O)O[C@H]1CCC=C2C=C[C@H](C)[C@H](CC[C@@H]3C[C@@H](O)CC(=O)O3)[C@H]21 [mevastatin]
inhibition of NFAT activity (NFAT): able to inhibit
inhibition of NFAT activity (NFAT; listed as mevastatin lactone form): active

Next, values leading:

IC50 (IL-2 [1]): 300 µM
Structure (SMILES): O=C1C[C@H](O)C[C@H](CCc2ccccc2)O1

IC50 (IL-2 [1]): 150 µM
Structure (SMILES): O=C1C[C@@H](O)C[C@H](CCc2ccccc2)O1

IC50 (IL-2 [1]): > 50 µM
Structure (SMILES): O=C1CCCC(CCc2ccccc2)O1 (stereo not shown)

IC50 (IL-2 [1]): 5 µM
Structure (SMILES): O=C1C=CCC(CCc2ccccc2)O1 (stereo not shown)

IC50 (IL-2 [1]): > 50 µM
Structure (SMILES): O=C1CCC(CCc2ccccc2)O1 (stereo not shown)

IC50 (IL-2 [1]): 15 µM
Structure (SMILES): O=C1C=CC(CCc2ccccc2)O1 (stereo not shown)

IC50 (IL-2 [1]): > 50 µM
Structure (SMILES): O=C1C=C(CCc2ccccc2)CO1

IC50 (IL-2 [1]): 12 to 40 µM
Structure (SMILES): CCOC(=O)/C=C/C=C/CCc1ccccc1

IC50 (IL-2 [1]): 4 to 12 µM
Structure (SMILES): CCOC(=O)/C=C/C=C/C=C/c1ccccc1

IC50 (IL-2 [1]): 3 µM
Structure (SMILES): COC(=O)/C=C/C=C/C=C/c1c(-c2ccc(F)cc2)c2ccccc2n1C(C)C [drawing 85]
